Converted amounts (≈) assume the structure as drawn. A value given as a limit tells only on which side of the number the result lay.

What all share (test): ≥ marks a high value that may be exact or a test limit, other limits are often not marked, values filed in µg/mL are converted to µM
In test [1] the test system is Staphylococcus aureus ATCC 43300.
Test [2] concerns Staphylococcus aureus ST1065.
The subject of test [3] is Escherichia coli ML-35p.
Test [4] relates to Klebsiella pneumoniae ATCC 13883.
Test [5] has as its system Pseudomonas aeruginosa ATCC 27853.
Test [6] deals with Staphylococcus aureus ATCC BAA-44.
Test [7] has as its system Acinetobacter baumannii ATCC 19606.
Test [8] deals with Saccharomyces cerevisiae.
Test [9] relates to Escherichia coli ATCC 35218.
Test [10] relates to Escherichia coli ATCC 25922.
Test [11] has as its system Salmonella enterica subsp. enterica serovar Enteritidis.
For test [12], the system named is Staphylococcus aureus ATCC 25923.
The subject of test [13] is Candida albicans ATCC 90028.
Test [14] has as its system Enterococcus faecalis ATCC 29212.
Test [15] deals with Candida parapsilosis ATCC 22019.
Test [16] has as its system Bacillus megaterium.
The subject of test [17] is Pseudomonas aeruginosa CGMCC 1.860.
For test [18], the system named is Enterococcus faecium CGMCC 1.2334.
Test [19] relates to Staphylococcus aureus AS1.72.
Test [20] has as its system Enterococcus faecalis CGMCC 1.595.
Test [21] has as its system Bacillus cereus AS1.126.
Test [22] concerns Lactococcus lactis AS1.1690.
The subject of test [23] is Escherichia coli AS1.349.
In test [24] the test system is Streptococcus sobrinus ATCC 6715.
Test [25] has as its system Streptococcus sanguinis ATCC 10556.
Test [26] has as its system Streptococcus mutans UA159.
Test [27] has as its system Alcaligenes faecalis ATCC 8750.
Test [28] relates to Enterobacter cloacae beta-12.
For test [29], the system named is Escherichia coli SBS 363.
Test [30] deals with Salmonella sp.
Test [31] relates to Escherichia coli D31.
Test [32] concerns Serratia marcescens ATCC 4112.
In test [33] the test system is Salmonella enterica subsp. arizonae.
Test [34] has as its system Bacillus subtilis ATCC 6633.
The test system of test [35] is Klebsiella pneumoniae ATCC 200603.
The subject of test [36] is Pseudomonas aeruginosa ATCC 9027.
For test [37], the system named is Staphylococcus epidermidis ATCC 14490.
The subject of test [38] is Candida tropicalis PCM 2681.
The test system of test [39] is Candida albicans ATCC 10231.
Test [40] has as its system Escherichia coli ATCC 2592.
The subject of test [41] is Staphylococcus aureus 1550.
For test [42], the system named is Micrococcus luteus ATCC 9341.
For test [43], the system named is Staphylococcus aureus ATCC 6538.
Test [44] relates to Mycobacterium tuberculosis H37Rv.
Test [45] deals with Mycobacterium tuberculosis CSU87.
For test [46], the system named is Mycobacterium tuberculosis 411.
In test [47] the test system is Mycobacterium tuberculosis 173.
The test system of test [48] is Mycobacterium tuberculosis 212.

As to `CC[C@H](C)[C@H](NC(=O)CNC(=O)[C@H](C)NC(=O)[C@H](CC(C)C)NC(=O)[C@H](C)NC(=O)[C@H](C)NC(=O)[C@@H]1CCCN1C(=O)[C@H](CC(C)C)NC(=O)[C@@H](N)Cc1ccccc1)C(=O)NCC(=O)NCC(=O)N[C@H](C(=O)N[C@@H](CC(C)C)C(=O)NCC(=O)N[C@@H](CCCCN)C(=O)N[C@@H](CC(C)C)C(=O)N[C@@H](Cc1ccccc1)C(N)=O)[C@@H](C)CC` [FLPAALAGIGGILGKLF], the minimal inhibitory concentration (MIC) in test [1] was 6.25 µM (≈ 10.4 µg/mL); in [2], 6.25 µM (≈ 10.4 µg/mL); in test [3] it was 25 µM (≈ 41.4 µg/mL); in test [4], no less than 100 µM; in test [5], greater than 200 µM; in test [6] it was 6.25 µM (≈ 10.4 µg/mL). The minimum inhibitory concentration (MIC) in [7] was 25 µM (≈ 41.4 µg/mL); in test [8], 25 µM (≈ 41.4 µg/mL); in test [9], no less than 50 µM; in test [10] it was 5 µM (≈ 8.29 µg/mL); in test [11], no less than 200 µM; in [12], 6.25 µM (≈ 10.4 µg/mL). Also, the MIC was no less than 100 µM in [13], 25 µM (≈ 41.4 µg/mL) in test [14], no less than 200 µM in test [15] and 1.56 µM (≈ 2.59 µg/mL) in test [16].
On to `NC(N)=NCCC[C@H](NC(=O)[C@H](Cc1cnc[nH]1)NC(=O)[C@H](Cc1c[nH]c2ccccc12)NC(=O)[C@H](Cc1ccccc1)NC(=O)[C@H](CCCN=C(N)N)NC(=O)[C@H](CCCN=C(N)N)NC(=O)[C@H](Cc1c[nH]c2ccccc12)NC(=O)[C@H](Cc1cnc[nH]1)NC(=O)[C@H](CCCN=C(N)N)NC(=O)[C@@H](N)Cc1c[nH]c2ccccc12)C(=O)O` [WRHWRRFWHR], for which the MIC in test [17] is 3.13 µM (≈ 5.08 µg/mL); in test [18], 6.25 µM (≈ 10.1 µg/mL); in [19], no less than 50 µM; in [20] it was 3.13 µM (≈ 5.08 µg/mL); in test [21] it was 6.25 µM (≈ 10.1 µg/mL); in test [22], 6.25 µM (≈ 10.1 µg/mL). The same molecule came in with an MIC in test [23] of 25 µM (≈ 40.6 µg/mL).
As for `NCCCC[C@H](NC(=O)[C@H](Cc1c[nH]c2ccccc12)NC(=O)[C@H](CCCCN)NC(=O)[C@H](CCCCN)NC(=O)[C@H](Cc1ccccc1)NC(=O)[C@H](Cc1ccccc1)NC(=O)[C@H](CCCCN)NC(=O)[C@H](CCCCN)NC(=O)[C@H](Cc1ccccc1)NC(=O)[C@H](Cc1ccccc1)NC(=O)[C@H](CCCCN)NC(=O)[C@H](Cc1ccccc1)NC(=O)[C@@H](N)Cc1c[nH]c2ccccc12)C(=O)O` [WFKFFKKFFKKWK], the minimal inhibitory concentration (MIC) in test [24], in test [25] and in test [26] was 4.22 µM (≈ 8 µg/mL) in each case.
Take `CC(C)[C@H](NC(=O)[C@H](C)NC(=O)[C@@H]1CCCN1C(=O)[C@H](Cc1ccc(O)cc1)NC(=O)[C@@H](N)CCCN=C(N)N)C(=O)NCC(=O)N[C@@H](Cc1ccc(O)cc1)C(=O)N[C@H](C(=O)O)[C@@H](C)O` [RYPAVGYT]: the MIC in test [5] is 6.26 µM (≈ 5.8 µg/mL); in test [27], 6.26 µM (≈ 5.8 µg/mL); in test [28], 3.13 µM (≈ 2.9 µg/mL); in test [29] it was 6.26 µM (≈ 5.8 µg/mL); in test [30], 6.26 µM (≈ 5.8 µg/mL); in [31], 6.26 µM (≈ 5.8 µg/mL). Further, the minimal inhibitory concentration (MIC) in test [32] and in test [33] was 6.26 µM (≈ 5.8 µg/mL) throughout.
As to `CC[C@H](C)[C@H](N)C(=O)N[C@H]1CSSC[C@@H](C(=O)N[C@H](C(=O)O)[C@@H](C)CC)NC(=O)[C@H](Cc2cnc[nH]2)NC(=O)[C@H](Cc2cnc[nH]2)NC1=O` [ICHHCI], the minimum inhibitory concentration (MIC) is no less than 706 µM in test [34]; no less than 706 µM in test [35]; greater than 706 µM in [36]; no less than 706 µM in test [37]; no less than 706 µM in test [38]; greater than 706 µM in test [10]. The MIC in test [12] and in test [39] was greater than 706 µM throughout.
Regarding `CC(C)[C@H](NC(=O)[C@H](CCCCN)NC(=O)[C@H](Cc1ccccc1)NC(=O)[C@@H](NC(=O)[C@@H](NC(=O)[C@H](CCCCN)NC(=O)[C@@H](N)CCCCN)C(C)C)C(C)C)C(=O)N[C@@H](CCCCN)C(=O)N[C@@H](Cc1ccccc1)C(=O)N[C@@H](Cc1cnc[nH]1)C(=O)O` [KKVVFKVKFH], the MIC worked out at 17.5 µM (≈ 22 µg/mL) in test [40]; 19.8 µM (≈ 25 µg/mL) in test [41]; 7.94 µM (≈ 10 µg/mL) in test [36]; 6.35 µM (≈ 8 µg/mL) in test [42]; 9.92 µM (≈ 12.5 µg/mL) in test [43].
In the case of `CC[C@H](C)[C@H](N)C(=O)N[C@@H](CC(C)C)C(=O)N[C@@H](CC(C)C)C(=O)N[C@@H](CCCCN)C(=O)N[C@@H](CCCCN)C(=O)N[C@@H](CC(C)C)C(=O)N[C@@H](CC(C)C)C(=O)N[C@@H](CCCCN)C(=O)N[C@@H](CCCCN)C(=O)N[C@H](C(N)=O)[C@@H](C)CC` [ILLKKLLKKI], the minimal inhibitory concentration (MIC) was no less than 413 µM in test [44]; no less than 207 µM in test [45]; no less than 207 µM in test [46]; no less than 413 µM in test [47]; no less than 413 µM in test [48].

What is called MIC is the lowest concentration found to suppress growth. A high value points to weaker potency.

Values taken from DBAASP.
